The source of these data is a melting point compilation (Tetko et al.; mined from patent text by program, amines drawn as free bases though some values may be those of a salt).

The melting point is the temperature, or range, at which the solid turns liquid. With `c1ccc2c(c1)CC(CN1CCN(c3ccc4c(c3)CCO4)CC1)C2`, the melting point fell in the range of 180 to 182 °C.

Compound `Cc1cccc2c(C3=CCN(C[C@H](O)COc4cccc5[nH]ccc45)CC3)c[nH]c12` displayed a melting point of 155 to 158 °C.

With `COC(c1ccccc1)C1CCCCCC(=Cc2ccccc2)C1=O` (centres undefined), the melting point lay within 136 to 139 °C.

Compound `CC(C)OC(=O)C1=C(c2cccc([N+](=O)[O-])c2)N2C(=O)N(C)NC2=NC1C` (centres undefined) displayed a melting point of 255 to 256 °C.

As to `CSc1ccc(COC(=O)OCc2ccc([N+](=O)[O-])cc2)cc1`, the melting point is 84 to 86 °C.

Compound `CCOc1nn(-c2ccc(C(F)(F)F)cn2)cc1CCCOc1cc(CCC(=O)O)n(-c2ccccc2)n1` displayed a melting point of 121 to 122 °C.

The compound `CCOC(OCC)c1nc(N)nc(N)c1-c1ccc(Cl)cc1Cl` gave a melting point of 225 °C.

Take `COc1ccccc1C(OC)c1cccnn1` (centres undefined): the melting point is 110 to 111 °C.

For the compound `CC(CN(C)c1ccccc1)NCC(O)c1ccc(O)c(C(N)=O)c1` (centres undefined), the melting point is 143 to 145 °C.

With `CCCC1N=Cc2cc(Cl)nc(=O)n21` (centres undefined), the melting point lay within 194 to 196 °C.

Compound `CCCCCCCCCCCCCCOc1ccc(CN(C(C)=O)c2cccc(CO)c2)cc1` showed a melting point of 65 to 67 °C.

Compound `O=C1CCC(N2Cc3c(OCc4ccc(CN5CCc6cc(F)ccc6C5)cc4)cccc3C2=O)C(=O)N1` (centres undefined) returned a melting point of 123 to 125 °C.

Turning to `Cc1c(/C=C/C(=O)c2nn(C)c3ccccc23)ncn1C(c1ccccc1)(c1ccccc1)c1ccccc1`, the melting point was 223 to 225 °C.

Turning to `CN1CCN(C(=O)OC2C3=C(SCCS3)C(=O)N2c2ccccn2)CC1` (centres undefined), the melting point amounted to 145 °C.

In the case of `CCCN(C=Nc1ccc2nnc(-c3ncc([N+](=O)[O-])n3C)n2n1)CCC`, the melting point lay in the range of 155 to 157 °C.

Turning to `CCCCCCCCCCCCCCCOCCSCCCO`, the melting point was in the range of 44 to 47 °C.

`N#Cc1ccccc1-c1ccc(CNc2cc(Cl)nc3ccnn23)cc1` returned a melting point of 162 to 163 °C.

`COc1cc(COc2nn(-c3ccccc3)cc2CC(=O)O)ccc1OCc1nc(-c2ccco2)oc1C` came in with a melting point of 179 to 180 °C.

`COc1nsc(S(=O)(=O)c2ccccc2)c1C#N` gave a melting point of 64 °C.

In turn, `OCCOCC(O)c1ccc(OCc2ccccc2)cc1` (centres undefined) registered a melting point of 116 to 117 °C.

For `COC(=O)C1(CC(N)=O)C(=O)N(C)C(=O)c2ccc(Cl)cc21` (centres undefined), the melting point is 220 to 222 °C.

`CC(O)(CNC(=S)Nc1ccc(Br)cc1)C(=O)Nc1ccc([N+](=O)[O-])c(C(F)(F)F)c1` (centres undefined) showed a melting point of 192 to 195 °C.

For the compound `COc1cc2cnn(CCCCl)c(=O)c2cc1OC`, the melting point lay in the range of 185 to 187 °C.

Compound `O=C(Nc1ccccc1)Nc1cnc(-c2ccccc2)nc1-c1ccccc1Cl` had a melting point of 195 to 198 °C.

On to `COC(=O)c1cc(C(=O)c2c(C)c(NC(=O)c3cccc(OC(C)=O)c3)c3ccccn23)ccc1N`, for which the melting point was found to be 210 °C.

As for `CCC1(C)CC(O)C2(C)CCC3c4ccc(O)cc4CCC3C12` (centres undefined), the melting point lay in the range of 132 to 136 °C.

Turning to `CCN(CC)C(=O)n1cnc(Sc2c(C)cc(C)c(C)c2OC)n1`, the melting point was 138 to 139 °C.

For `Brc1csc(N2CCCCC2)n1`, the melting point was determined as 66 °C.

For the compound `O=[N+]([O-])c1cc(Cn2nnnc2Sc2ccccc2)cc([N+](=O)[O-])c1`, the melting point was 156 to 158 °C.

Regarding `CCOC(=O)C[C@@H]1C(=O)N(S(=O)(=O)c2ccc(OC)cc2)C=C[C@@H]1c1ccco1`, the melting point lay in the range of 98 to 100 °C.

In the case of `C(=Nc1ccc(-c2c[nH]cn2)cc1)Nc1ccccc1`, the melting point is 123 to 124 °C.

Compound `CCC(C)c1ccc(-n2c(-c3cc(C)c(OCCO)c(C)c3)nc3ccc(S(C)(=O)=O)cc3c2=O)cc1` (centres undefined) had a melting point of 259 to 260 °C.

As for `O=C(O)CCC(O)c1ccc(-c2ccccc2)cc1` (centres undefined), the melting point was in the range of 139 to 140 °C.

Compound `CCCCC(NC(=O)c1ccccc1)C(=O)CN(C)C(=O)N1CCCC1C(=O)O` (centres undefined) came in with a melting point of 40 to 80 °C.
